Assay results taken from patent US6121257A, “Sulfamate containing macrocyclic immunomodulators” (Abbott Laboratories, priority 1999, dated 2000).

Test system: human mixed lymphocyte reaction (MLR)
Test: human mixed lymphocyte reaction (MLR) assay
Type: cell-based
Details: Table 1
Description: The immunosuppressant activity of the compounds of the present invention was determined using the human mixed lymphocyte reaction (MLR) assay described by Kino, T. et al., in Transplantation Proceedings, XIX(5):36-39, Suppl. 6 (1987), hereby incorporated by reference.

Row | SMILES | IC50 [nM]
1 | CC[C@@H]1/C=C(\C)C[C@H](C)C[C@H](OC)[C@H]2O[C@@](O)(C(=O)C(=O)N3CCCC[C@H]3C(=O)O[C@H](/C(C)=C/[C@@H]3CC[C@@H](OS(=O)(=O)NC(=O)OCc4ccc([N+](=O)[O-])cc4)[C@H](OC)C3)[C@H](C)[C@@H](O)CC1=O)[C@H](C)C[C@@H]2OC [Example 11, (1R,9S,12S,13R,14S,17R,21S,23S,24R,25S,27R)-17-ethyl-1,14-dihydroxy-23,25-dimethoxy-12-[(E)-2-((1R,3R,4R)-3-methoxy-4-{[({[(4-nitrobenzyl)oxy]carbonyl}amino)sulfonyl]oxy}cyclohexyl)-1-methylethenyl]-13,19,21,27-tetramethyl-2,3,10,16-tetraoxo-11,28-dioxa-4-azatricyclo[22.3.1.0^4,9]octacos-18-ene] | 6.68
2 | CC[C@@H]1/C=C(\C)C[C@H](C)C[C@H](OC)[C@H]2O[C@@](O)(C(=O)C(=O)N3CCCC[C@H]3C(=O)O[C@H](/C(C)=C/[C@@H]3CC[C@@H](OS(=O)(=O)NC(=O)OCc4ccccn4)[C@H](OC)C3)[C@H](C)[C@@H](O)CC1=O)[C@H](C)C[C@@H]2OC [Example 10, (1R,9S,12S.13R,14S,17R,21S,23S,24R,25S,27R)-17-ethyl-1,14-dihydroxy-23,25-dimethoxy-12-((E)-2-[(1R,3R,4R)-3-methoxy-4-[({[(2-pyridinylmethoxy)carbonyl]amino}sulfonyl)oxy]cyclohexyl]-1-methylethenyl)-13,19,21,27-tetramethyl-2,3,10,16-tetraoxo-11,28-dioxa-4-azatricyclo[22.3.1.0^4,9]octacos-18-ene] | 0.16
3 | CC[C@@H]1/C=C(\C)C[C@H](C)C[C@H](OC)[C@H]2O[C@@](O)(C(=O)C(=O)N3CCCC[C@H]3C(=O)O[C@H](/C(C)=C/[C@@H]3CC[C@@H](OS(=O)(=O)NC(=O)OC(C)(C)C)[C@H](OC)C3)[C@H](C)[C@@H](O)CC1=O)[C@H](C)C[C@@H]2OC [Example 4, (1R,9S,12S,13R,14S,17R,21S,23S,24R,25S,27R)-12-{(E)-2-[(1R,3R,4R)-4-({[(tert-butoxycarbonyl)amino]sulfonyl}oxy)-3-methoxycyclohexyl]-1-methylethenyl}-17-ethyl-1,14-dihydroxy-23,25-dimethoxy-13,19,21,27-tetramethyl-2,3,10,16-tetraoxo-11,28-dioxa-4-azatricyclo[22.3.1.0^4,9]octacos-18-ene] | 0.99
4 | CC[C@@H]1/C=C(\C)C[C@H](C)C[C@H](OC)[C@H]2O[C@@](O)(C(=O)C(=O)N3CCCC[C@H]3C(=O)O[C@H](/C(C)=C/[C@@H]3CC[C@@H](OS(=O)(=O)NC(=O)OCc4ccccc4)[C@H](OC)C3)[C@H](C)[C@@H](O)CC1=O)[C@H](C)C[C@@H]2OC [Example 3, (1R,9S,12S,13R,14S,17R,21 S,23S,24R,25S,27R)-12-((E)-2-{(1R,3R,4R)-4-[({[(benzyloxy)carbonyl]amino]sulfonyl)oxy]-3-methoxycyclohexyl}-1-methylethenyl)-17-ethyl-1,14-dihydroxy-23,25-dimethoxy-13,19,21,27-tetramethyl-2,3,10,16-tetraoxo-11,28-dioxa-4-azatricyclo[22.3.1.0^4,9]octacos-18-ene] | 3.96
5 | CC[C@@H]1/C=C(\C)C[C@H](C)C[C@H](OC)[C@H]2O[C@@](O)(C(=O)C(=O)N3CCCC[C@H]3C(=O)O[C@H](/C(C)=C/[C@@H]3CC[C@@H](OS(=O)(=O)NC(=O)O[C@@H]4C[C@H](C)CC[C@H]4C(C)C)[C@H](OC)C3)[C@H](C)[C@@H](O)CC1=O)[C@H](C)C[C@@H]2OC [Example 12] | 24.5
6 | CC[C@@H]1/C=C(\C)C[C@H](C)C[C@H](OC)[C@H]2O[C@@](O)(C(=O)C(=O)N3CCCC[C@H]3C(=O)O[C@H](/C(C)=C/[C@@H]3CC[C@@H](OS(=O)(=O)NC(=O)OCc4cccnc4)[C@H](OC)C3)[C@H](C)[C@@H](O)CC1=O)[C@H](C)C[C@@H]2OC [Example 9, (1R,9S,12S,13R,14S,17R,21S,23S,24R,25S,27R)-17-ethyl-1,14-dihydroxy-23,25-dimethoxy-12-((E)-2-{(1R,3R,4R)-3-methoxy-4-[({[(3-pyridinylmethoxy)carbonyl]amino}sulfonyl)oxy]cyclohexyl}-1-methylethenyl)-13,19,21,27-tetramethyl-2,3,10,16-tetraoxo-11,28-dioxa-4-azatricyclo[22.3.1.0^4,9]octacos-18-ene] | 4.77
7 | CC[C@@H]1/C=C(\C)C[C@H](C)C[C@H](OC)[C@H]2O[C@@](O)(C(=O)C(=O)N3CCCC[C@H]3C(=O)O[C@H](/C(C)=C/[C@@H]3CC[C@@H](OS(=O)(=O)NC(=O)OCc4ccncc4)[C@H](OC)C3)[C@H](C)[C@@H](O)CC1=O)[C@H](C)C[C@@H]2OC [Example 8, (1R,9S,12S,13R,14S,17R,21S,23S,24R,25S,27R)-17-ethyl-1,14-dihydroxy-23,25-dimethoxy-12-((E)-2-{(1R,3R,4R)-3-methoxy-4-[({[(4-pyridinylmethoxy)carbonyl]amino}sulfonyl)oxy]cycyclohexyl}-1-methylethenyl)-13,19,21,27-tetramethyl-2,3,10,16-tetraoxo-11,28-dioxa-4-azatricyclo[22.3.1.0^4,9]octacos-18-ene] | 0.1

The next lines start with the values.

Row | IC50 [nM] | SMILES
8 | 26.1 | CC[C@@H]1/C=C(\C)C[C@H](C)C[C@H](OC)[C@H]2O[C@@](O)(C(=O)C(=O)N3CCCC[C@H]3C(=O)O[C@H](/C(C)=C/[C@@H]3CC[C@@H](OS(=O)(=O)NC(=O)OC4CCCC4)[C@H](OC)C3)[C@H](C)[C@@H](O)CC1=O)[C@H](C)C[C@@H]2OC [Example 5, (1R,9S,12S,13R,14S,17R,21S,23S,24R,25S,27R)-12-((E)-2-{(1R,3R.4R)-4-[({[(cyclopentyloxy)carbonyl]amino}sulfonyl)oxy]-3-methoxycyclohexyl}-1-methylethenyl)-17-ethyl-1,14-dihydroxy-23,25-dimethoxy-13,19,21,27-tetramethyl-2,3,10,16-tetraoxo-11,28-dioxa-4-azatricyclo[22.3.1.0^4,9]octacos-18-ene]
9 | 9.63 | CC[C@@H]1/C=C(\C)C[C@H](C)C[C@H](OC)[C@H]2O[C@@](O)(C(=O)C(=O)N3CCCC[C@H]3C(=O)O[C@H](/C(C)=C/[C@@H]3CC[C@@H](OS(=O)(=O)NC(=O)OC4CCCCCC4)[C@H](OC)C3)[C@H](C)[C@@H](O)CC1=O)[C@H](C)C[C@@H]2OC [Example 7, (1R,9S,12S,13R,14S,17R,21S,23S,24R,25S,27R)-12-((E)-2-{(1R,3R,4R)-4-[({[(cycloheptyloxy)carbonyl]amino}sulfonyl)oxy]-3-methoxycyclohexyl}-1-methylethenyl)-17-ethyl-1,14-dihydroxy-23,25-dimethoxy-13,19,21,27-tetramethyl-2,3,10,16-tetraoxo-11,28-dioxa-4-azatricyclo[22.3.1.0^4,9]octacos-18-ene]
10 | 0.57 | CCOC(=O)NS(=O)(=O)O[C@@H]1CC[C@@H](/C=C(\C)[C@H]2OC(=O)[C@@H]3CCCCN3C(=O)C(=O)[C@]3(O)O[C@H]([C@@H](OC)C[C@@H](C)C/C(C)=C/[C@@H](CC)C(=O)C[C@H](O)[C@H]2C)[C@@H](OC)C[C@H]3C)C[C@H]1OC [Example 2, (1R,9S12S,13R,14S,17R,21S,23S,24R,25S,27R)-12-{(E)-2-[(1R,3R,4R)-4-({[(ethoxycarbonyl)amino]sulfonyl}oxy)-3-methoxycyclohexyl]-1-methylethenyl}-17-ethyl-1,14-dihydroxy-23,25-dimethoxy-13,19,21,27-tetramethyl-2,3,10,16-tetraoxo-11,28-dioxa-4-azatricyclo[22.3.1.0^4,9]octacos-18-ene]
11 | 0.73 | CC[C@@H]1/C=C(\C)C[C@H](C)C[C@H](OC)[C@H]2O[C@@](O)(C(=O)C(=O)N3CCCC[C@H]3C(=O)O[C@H](/C(C)=C/[C@@H]3CC[C@@H](OS(=O)(=O)NC(=O)OC)[C@H](OC)C3)[C@H](C)[C@@H](O)CC1=O)[C@H](C)C[C@@H]2OC [Example 1, (1R,9S,12S,13R,14S,17R,21S,23S,24R,25S,27R)-17-ethyl-1,14-dihydroxy-23,25-dimethoxy-12-{(E)-2-[(1R,3R,4R)-3-methoxy-4-({[(methoxycarbonyl)amino]sulfonyl)oxy)cyclohexyl]-1-methylethenyl}-13,19,21,27-tetramethyl-2,3,10,16-tetraoxo-11,28-dioxa-4-azatricyclo[22.3.1.0^4,9]octacos-18-ene]
12 | 21.6 | CC[C@@H]1/C=C(\C)C[C@H](C)C[C@H](OC)[C@H]2O[C@@](O)(C(=O)C(=O)N3CCCC[C@H]3C(=O)O[C@H](/C(C)=C/[C@@H]3CC[C@@H](OS(=O)(=O)NC(=O)OCC45CC6CC(CC(C6)C4)C5)[C@H](OC)C3)[C@H](C)[C@@H](O)CC1=O)[C@H](C)C[C@@H]2OC [Example 13, (1R,9S,12S,13R,14S,17R,21S,23S,24R,25S,27R)-12-((E)-2-{(1R,3R,4R)-4-[({[(1-adamantylmethoxy)carbonyl]amino}sulfonyl)oxy]-3-methoxycyclohexyl}-1-methylethenyl)-17-ethyl-1,14-dihydroxy-23,25-dimethoxy-13,19,21,27-tetramethyl-2,3,10,16-tetraoxo-11,28-dioxa-4-azatricyclo[22.3.1.0^4,9]octacos-18-ene]
13 | 4.7 | CC[C@@H]1/C=C(\C)C[C@H](C)C[C@H](OC)[C@H]2O[C@@](O)(C(=O)C(=O)N3CCCC[C@H]3C(=O)O[C@H](/C(C)=C/[C@@H]3CC[C@@H](OS(=O)(=O)NC(=O)OC4CCCCC4)[C@H](OC)C3)[C@H](C)[C@@H](O)CC1=O)[C@H](C)C[C@@H]2OC [Example 6, (1R,9S,12S,13R,14S,17R,21S,23S,24R,25S,27R)-12-((E)-2-{(1R,3R,4R)-4-[({[(cyclohexyloxy)carbonyl]amino}sulfonyl)oxy]-3-methoxycyclohexyl}-1-methylethenyl)-17-ethyl-1,14-dihydroxy-23,25-dimethoxy-13,19,21,27-tetramethyl-2,3,10,16-tetraoxo-11,28-dioxa-4-azatricyclo[22.3.1.0^4,9]octacos-18-ene]
